{"source": "patent US9474790B2", "about": "“Stable, protracted GLP-1/glucagon receptor co-agonists for medical use” (Novo Nordisk A/S, priority 2013, dated 2016)", "test_system": "DIO mice", "assay": "In vivo test in diet-induced obese (DIO) mice: body weight and blood glucose", "design": "species or system c57bl/6J mice", "details": "for Percent BW of baseline at week 5 (mean ± SD): s.c. once daily 5 weeks, co-agonists 5 then 10 nmol/kg, liraglutide 100 nmol/kg", "text": "The purpose of this experiment was to investigate effect of the glucagon-GLP-1R co-agonists from Example 8 and Example 12 on body weight and blood glucose in vivo in DIO mice. Liraglutide (a human GLP-1 analogue marketed by Novo Nordisk NS under the brand name VictozaTM) was included for comparison. Male […]/6J mice obtained from Jackson Lab (USA) were fed a high fat diet (Research Diets D12451, 45% kcal fat) to obtain approximately 50% overweight compared to age-matched lean control mice. The DIO mice are characterized by normoglycemia, insulin resistance and obesity. […] The co-agonists, i.e. the glucagon derivatives, were dissolved in 50 mM Na2HPO4, 145 mM NaCl og 0.05% Tween 80, pH 7.4, while liraglutide was diluted from 6 mg/ml VictozaTM pens in DPBS buffer (Invitrogen) containing 0.5% rat serum albumin. Vehicle treated animals received 50 mM Na2HPO4, 145 mM NaCl og 0.05% Tween 80, pH 7.4. Compounds and vehicle were dosed (1 ml/kg) for 5 weeks s.c. once daily just prior to lights out. For the first half of the study co-agonists were administered at a dose of 5 nmol/kg and for the second half of the study co-agonists were administered at a dose of 10 nmol/kg. For comparison, liraglutide at a dose of 100 nmol/kg, likewise dosed s.c. once daily, was included. Body weight was monitored before dosing, daily during the dosing period. Non-fasted blood glucose was measured on the day of initiation of dosing and weekly during the dosing period, prior to dosing. Blood for measurement of blood glucose was taken from the tail tip capillary and blood glucose was measured using a glucose analyzer (Biosen 5040) based on the glucose oxidase method. The body weight reduction/body weight at the end of the 5 week treatment period and area under the blood glucose curve during the five week treatment period are given in the tables below.", "note": "Numbered stars: 1 amine (or outer) side, 2 acyl side, 3 side chain; on linkers, the order of the positions; unused ones are H or OH. Square brackets hold non-standard residues; d marks the D form. Side chains are listed from the residue outwards. Peptide text beside a SMILES is read from it. * marks the point of attachment. C18 diacid = O=C(O)CCCCCCCCCCCCCCCCC(=O)*; γGlu = O=C(O)[C@H](CCC(=O)[*:2])N[*:1]; AEEA = NCCOCCOCC(=O)O; Aib = CC(C)(N)C(=O)O", "data": [{"compound": "CC(C)C[C@H](NC(=O)[C@H](CC(C)C)NC(=O)[C@H](Cc1c[nH]c2ccccc12)NC(=O)[C@H](CCC(N)=O)NC(=O)[C@@H](NC(=O)[C@H](Cc1ccccc1)NC(=O)[C@H](CCC(=O)O)NC(=O)[C@H](CCCNC(=N)N)NC(=O)[C@H](C)NC(=O)[C@H](CCCNC(=N)N)NC(=O)[C@H](CCCNC(=N)N)NC(=O)[C@H](CO)NC(=O)[C@H](CC(=O)O)NC(=O)[C@H](CC(C)C)NC(=O)[C@H](Cc1ccc(O)cc1)NC(=O)[C@H](CCCCN)NC(=O)[C@H](CO)NC(=O)[C@H](CC(C)C)NC(=O)[C@H](CC(=O)O)NC(=O)[C@H](CO)NC(=O)[C@@H](NC(=O)[C@H](Cc1ccccc1)NC(=O)[C@@H](NC(=O)CNC(=O)[C@H](CCC(N)=O)NC(=O)C(C)(C)NC(=O)[C@@H](N)Cc1c[nH]cn1)[C@@H](C)O)[C@@H](C)O)C(C)C)C(=O)N[C@@H](CC(N)=O)C(=O)N[C@@H](CCCCNC(=O)CC[C@H](NC(=O)CC[C@H](NC(=O)COCCOCCNC(=O)COCCOCCNC(=O)CC[C@H](NC(=O)CCCCCCCCCCCCCCCCC(=O)O)C(=O)O)C(=O)O)C(=O)O)C(N)=O", "note": "[Example 12, N^ε29-[(4S)-4-carboxy-4-[[(4S)-4-carboxy-4-[[2-[2-[2-[[2-[2-[2-[[(4S)-4-carboxy-4-(17-carboxyheptadecanoylamino)butanoyl]amino]ethoxy]ethoxy]acetyl]amino]ethoxy]ethoxy]acetyl]amino]butanoyl]amino]butanoyl]-[Aib2,Leu10,Arg20,Glu21,Leu27,Lys29]-Glucagon amide] (H-H[Aib]QGTFTSDLSKYLDSRRAREFVQWLLNK([γGlu-γGlu-AEEA-AEEA-γGlu-C18 diacid])-NH2)", "values": [{"measurement": "lowering of body weight in vivo", "setting": "5 weeks s.c. once daily", "result": "tends to be superior to liraglutide alone"}, {"measurement": "Percent BW of baseline at week 5 (mean ± SD)", "result": "75% ± 8%"}]}, {"compound": "CC(C)C[C@H](NC(=O)[C@H](CC(C)C)NC(=O)[C@H](Cc1c[nH]c2ccccc12)NC(=O)[C@H](CCC(N)=O)NC(=O)[C@@H](NC(=O)[C@H](Cc1ccccc1)NC(=O)[C@H](CCC(=O)O)NC(=O)[C@H](CCC(N)=O)NC(=O)[C@H](C)NC(=O)[C@H](C)NC(=O)[C@H](CCCCN)NC(=O)[C@H](CO)NC(=O)[C@H](CC(=O)O)NC(=O)[C@H](CC(C)C)NC(=O)[C@H](Cc1ccc(O)cc1)NC(=O)[C@H](CCCCN)NC(=O)[C@H](CO)NC(=O)[C@H](CC(C)C)NC(=O)[C@H](CC(=O)O)NC(=O)[C@H](CO)NC(=O)[C@@H](NC(=O)[C@H](Cc1ccccc1)NC(=O)[C@@H](NC(=O)CNC(=O)[C@H](CCC(N)=O)NC(=O)C(C)(C)NC(=O)[C@@H](N)Cc1c[nH]cn1)[C@@H](C)O)[C@@H](C)O)C(C)C)C(=O)N[C@@H](CC(N)=O)C(=O)N[C@@H](CCCCNC(=O)CC[C@H](NC(=O)CC[C@H](NC(=O)COCCOCCNC(=O)COCCOCCNC(=O)CC[C@H](NC(=O)CCCCCCCCCCCCCCCCC(=O)O)C(=O)O)C(=O)O)C(=O)O)C(N)=O", "note": "[Example 8, N^ε29-[(4S)-4-carboxy-4-[[(4S)-4-carboxy-4-[[2-[2-[2-[[2-[2-[2-[[(4S)-4-carboxy-4-(17-carboxyheptadecanoylamino)butanoyl]amino]ethoxy]ethoxy]acetyl]amino]ethoxy]ethoxy]acetyl]amino]butanoyl]amino]butanoyl]-[Aib2,Leu10,Lys17,Ala18,Glu21,Leu27,Lys29]-Glucagon amide] (H-H[Aib]QGTFTSDLSKYLDSKAAQEFVQWLLNK([γGlu-γGlu-AEEA-AEEA-γGlu-C18 diacid])-NH2; N-terminus assumed)", "values": [{"measurement": "Percent BW of baseline at week 5 (mean ± SD)", "result": "88% ± 8%"}]}]}
